Key:
[1] = tested on: LPS-induced sepsis model BALB/c mice; assay: Survival rate in LPS-induced sepsis model; format: in vivo, mouse
Protocol: The control was injected with the same volume of PBS. The results are illustrated in FIG. 18.

[2] = biological target: T1, hTLR4 (human TLR4) (Homo sapiens, UniProt O00206); assay: SEAP activity (NF-κB activity) in HEK-Blue-hTLR4 cells; format: cell-based
T1 construct: host or cells: HEK-Blue-hTLR4 (HEK293-derived reporter line)
Protocol: HEK-Blue™-hTLR4 cells were dispensed into 24-well plates (BD Biosciences) to a cell number of 2×10^5 cells/well, and incubation was performed overnight. The next day, the culture was removed and medium replacement was performed. Then, a portion (200 μl) of the culture was transferred to a microcentrifuge tube and heated at 65° C. for 10 minutes using a heating block (FINEPCR. Co., Seoul, Korea). Subsequently, the culture was transferred to 96-well plates (BD Biosciences), and absorbance was measured at 405 nm using the HEK-Blue™ detection kit (InvivoGen) and a microplate reader spectrophotometer (Molecular Devices Inc., Silicon Valley, Calif., USA), to analyze an expression level of SEAP (secreted alkaline phosphatase).
To this end, the inducible secreted embryonic alkaline phosphatase (SEAP) reporter gene was placed under the control of an IL-12 p40 minimal promoter (IL-12 p40 is produced by activation of NF-κB and AP-1 (activator protein 1) after stimulation of TLR4) which contains sites where DNAs of NF-κB and AP-1 bind. Then, HEK-Blue™-hTLR4 cells were treated with varying concentrations of TIP or TIP (TIP W/O CPP), to which CPP is not linked, at 12.5, 25, 50 μM, and then an average value of SEAP activity was calculated to measure TLR4 activity. The results are illustrated in FIGS. 1(a) and 1(b).
The results are illustrated in FIGS. 12(a) and 12(b).

[3] = tested on: NLRP3 inflammasome; assay: Western blotting of NLRP3 inflammasome molecules in LPS/ATP-treated THP1 cells; format: cell-based, human
[4] = biological target: T2, BB-loop and C-terminal region of the TIR domain of TLR4 (Homo sapiens, UniProt O00206); assay: Surface plasmon resonance (SPR) assay; format: binding; conditions: conclusion of Experimental Example 8; no SPR constants printed
T2 construct: purchased Peptron, Inc; host or cells: chemical synthesis
Protocol: Surface plasmon resonance assay was performed using a ProteOn XPR36 instrument (Bio-Rad Laboratories, Inc.) with a ProteOn NLC sensor chip. Specifically, a synthetic peptide encoding BB-loop ([…]) (SEQ ID NO: 54) and C-terminal region ([…]) (SEQ ID NO: 55) of the TIR domain was immobilized on the surface of the NLC sensor chip using NeutrAvidin bound to the GLC polymer layer. For a control, PBS supplemented with 0.05% Tween 20, which is a running buffer, was flowed. […] After the measurement, the surface of the sensor chip was regenerated using 0.85% phosphoric acid or PBST. […] The equilibrium dissociation constant KD was calculated using the equation KD=Kd/Ka.

[5] = tested on: mBMDM cells (LPS-induced); assay: LPS-induced cytokine and NO secretion in mBMDM cells; format: cell-based, mouse
Protocol: RAW 264.7 cells, THP1 cells, and mBMDM cells were dispensed into 96-well plates to a cell number of 2×10^5 cells/well, or into 24-well plates to a cell number of 5×10^5 cells/well. Incubation was performed overnight. Subsequently, combined treatment with TIP1 and LPS was performed. After 24 hours, secretion levels of IFN-β, IL-6, and TNF-α were measured using a […] (BioLegend), Mouse IL-6 Platinum ELISA (eBiosciences), and a Mouse TNF alpha ELISA Ready SET-Go! kit (eBiosciences). Absorbance was measured at 450 nm using a microplate reader spectrophotometer (Molecular Devices), and the results were analyzed using Softmax Pro 5.3 software (Molecular Devices Inc.).
RAW 264.7 cells and mBMDM cells were dispensed into 96-well plates (BD Biosciences) to a cell number of 2×10^5 cells/well and incubated overnight. Then, a NO level of the culture supernatant was measured using a NO detection kit (iNtRON Biotechnology Inc., Seongnam, Korea). Absorbance was measured at 550 nm using a microplate reader spectrophotometer (Molecular Devices Inc.), and the results were analyzed using Softmax Pro 5.3 software (Molecular Devices Inc.).
TNF-α, IL-6, IFN-β levels in the culture supernatant of mBMDM cells were measured using mouse TNF-α, IL-6, IFN-β Ready-SET-Go! ELISA kits according to the method described in Example 2-5, and a NO level in the supernatant was measured according to the method described in Example 2-7. The results are illustrated in FIGS. 6(a)-6(d).

[6] = tested on: TLR4 signaling pathways; assay: Western blotting of NF-κB and MAPK in LPS-treated hPBMC cells; format: cell-based, human; conditions: LPS together with TIP1
Protocol: In order to perform Western blotting, a pre-protein extraction solution (M-PER, Thermo Fisher Scientific Inc.) was mixed with a protease and phosphatase inhibitor mixture, and was added to RAW 264.7 cell or hPBMC cell pellets. The pellets were cooled for 10 minutes, and then the lysates were centrifuged at 16000×g for 10 minutes. Then, NE-PER nuclear and cytoplasmic extraction reagents (Thermo Fisher Scientific Inc.) were used to extract cytoplasmic and nuclear proteins, respectively, and a BCA kit (Sigma-Alderich Co. LLC) was used to measure concentrations of the proteins. Subsequently, the same amounts of proteins were developed on SDS-polyacrylamide gels, and electrophoresis was performed using the Mini-PROTEAN Tetra Cell two-dimensional electrophoresis system (Bio-Rad Laboratories, Hercules, Calif., USA). The membrane was immunoblotted with primary antibodies by gentle shaking overnight at a temperature of 4° C. […] Then, after thorough shaking with PBST, the membrane was incubated with anti-mouse/-rabbit HRP-conjugated secondary antibodies (Thermo Fisher Scientific Inc.) for 2 hours; and the proteins were detected with SuperSignal West Pico ECL solution (Thermo Fisher Scientific Inc.) and were visualized with the Fuji LAS-3000 system (Fujifilm, Tokyo, Japan). […]

[7] = severe sepsis model, LPS 10 μg/g, TIP1 10 nmol/g

T1 sequence (O00206 24-839): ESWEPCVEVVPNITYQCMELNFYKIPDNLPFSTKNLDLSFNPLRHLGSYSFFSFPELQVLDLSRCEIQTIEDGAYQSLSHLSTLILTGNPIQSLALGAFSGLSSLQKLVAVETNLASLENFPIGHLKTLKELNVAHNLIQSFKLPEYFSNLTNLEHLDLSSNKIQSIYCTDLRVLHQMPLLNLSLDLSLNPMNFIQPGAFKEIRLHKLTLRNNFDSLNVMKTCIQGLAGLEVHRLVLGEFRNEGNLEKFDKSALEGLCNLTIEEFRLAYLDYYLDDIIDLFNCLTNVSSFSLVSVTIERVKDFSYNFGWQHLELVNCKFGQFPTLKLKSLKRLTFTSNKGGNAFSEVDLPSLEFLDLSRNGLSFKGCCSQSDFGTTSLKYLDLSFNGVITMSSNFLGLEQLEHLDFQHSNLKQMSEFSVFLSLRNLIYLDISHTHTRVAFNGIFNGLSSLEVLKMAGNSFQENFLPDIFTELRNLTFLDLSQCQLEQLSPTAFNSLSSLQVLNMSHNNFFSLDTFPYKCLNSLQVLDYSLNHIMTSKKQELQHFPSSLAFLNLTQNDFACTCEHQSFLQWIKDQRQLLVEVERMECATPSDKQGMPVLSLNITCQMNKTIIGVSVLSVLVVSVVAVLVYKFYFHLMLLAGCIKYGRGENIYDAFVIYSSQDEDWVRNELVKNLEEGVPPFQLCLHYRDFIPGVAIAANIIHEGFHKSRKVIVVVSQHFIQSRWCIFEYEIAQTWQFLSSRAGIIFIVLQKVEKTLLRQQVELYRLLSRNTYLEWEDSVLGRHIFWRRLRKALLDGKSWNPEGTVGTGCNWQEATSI
T1 sequence (Q9Y6Y9 17-160 partner limits assumed): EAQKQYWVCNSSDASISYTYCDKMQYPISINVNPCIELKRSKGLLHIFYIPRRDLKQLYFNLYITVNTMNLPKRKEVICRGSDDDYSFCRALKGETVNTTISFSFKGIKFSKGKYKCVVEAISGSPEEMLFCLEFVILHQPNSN

RQIKIWFQNRRMKWKKSHCRVLLI (TIP1)
survival rate compared with only LPS ([1]; BALB/c mice, TIP1 10 nmol/g and LPS 5 or 10 μg/g, 5 days): increased survival rate | survival rate maintained for 5 days ([1]; mild sepsis model, LPS 5 μg/g, TIP1 10 nmol/g): 30% | decrease of survival rate after two days [1, 7]: 90% | survival rate maintained for one day [1, 7]: 100% | LPS-induced SEAP activity ([2]; TIP 12.5, 25, 50 μM, then LPS, FIG. 1(a)): decreased LPS-induced SEAP activity in a concentration-dependent manner | NF-κB activity (SEAP activity) ([2]; together with LPS, FIG. 12(a)): highest inhibitory effect on NF-κB activity | intracellular expression level of NLRP3 [3]: remarkably decreased | intracellular expression level of active caspase-1 (10 kDa) [3]: remarkably decreased | intracellular expression level of mature IL-1β (17 kDa) [3]: remarkably decreased | binding to TIR domain regions of TLR4 [4]: binding to the C-terminal tail and the BB loop among the TIR domains of TLR4 | LPS-induced secretion level of IL-6 [5]: decreased | LPS-induced secretion level of NO [5]: decreased | LPS-induced secretion level of TNF-α [5]: decreased | MAPK activity (phosphorylation of ERK, JNK, p38) [6]: MAPK activity is inhibited | NF-κB activity (Iκ-Bα, Western blotting) [6]: NF-κB activity was inhibited

— patent US11352399B2, “Peptide for toll-like receptor (TLR) inhibition and pharmaceutical composition comprising same” (GENESEN CO., LTD., priority 2017, dated 2022)
